These results are taken from patent US10323037B2, “Aminopyridazinone compounds as protein kinase inhibitors” (Jiangsu Hengrui Medicine Co., Ltd., priority 2014, dated 2019).

Usually pIC50 stands for the negative decadic logarithm of the IC50, by convention in mol/L.

The structures appear in SMILES notation. pIC50: −log10 of the molar value.

This test deals with TMD-8 cells. The test can be described thus: Cell proliferation assay (CellTiter-Glo), TMD-8. Format: cell-based. The settings on record: Homo sapiens, TMD8, 120 h; 5-day treatment; read-out: TMD8 cells growth IC50. How it is done: Cell proliferation assay: TMD-8 and SU-DHL-1 cells were maintained at 37° C. in a humidified atmosphere with 5% CO2 in the recommended medium and serum concentrations. For cell proliferation assay, cells were seeded in 96-well pates at a density of 5,000 to 10,000 cells per well and cultured overnight at 37° C. in recommended medium supplemented with 5-10% FBS. On the next day, the test articles at various concentrations or vehicle control (0.5% DMSO) were added into cell culture. After 5-day treatment, the growth of cells was assayed by the CellTiter-Glo® Luminestceaent Cell Viability Assay (Promega). IC50 values were calculated using GraphPad Prism by plotting the logarithm of the concentration versus percent inhibition of cell growth as compared with the vehicle control.
(In ATP-based viability assays light output follows the ATP content of the culture.)
For `CN(C)C/C=C/C(=O)N1CCCC(n2cc(-c3ccc(Oc4cccc(Cl)c4)cc3)c3c(N)n[nH]c(=O)c32)C1` (stereo not shown) [Example 67, 4-amino-3-[4-(3-chlorophenoxy)phenyl]-1-[1-[(E)-4-(dimethylamino)but-2-enoyl]-3-piperidyl]-6H-pyrrolo[2,3-d]pyridazin-7-one], the negative-log IC50 (pIC50) was 6.00 to 8.00.

`C=CC(=O)N1CCCC(n2cc(-c3ccc(Oc4cccc(Cl)c4)c(OC)c3)c3c(N)n[nH]c(=O)c32)C1` (stereo not shown) [Example 68, 1-(1-acryloylpiperidin-3-yl)-4-amino-3-(4-(3-chlorophenoxy)-3-methoxyphenyl)-1H-pyrrolo[2,3-d]pyridazin-7(6H)-one]: the negative logarithm of the IC50 (pIC50) is not below 8.00.

In the case of `COc1cc(-c2cn(C3CCCN(C(=O)/C=C/CN(C)C)C3)c3c(=O)[nH]nc(N)c23)ccc1Oc1cccc(Cl)c1` (stereo not shown) [Example 69, 4-amino-3-[4-(3-chlorophenoxy)-3-methoxy-phenyl]-1-[1-[(E)-4-(dimethylamino)but-2-enoyl]-3-piperidyl]-6H-pyrrolo[2,3-d]pyridazin-7-one], the pIC50 was not below 8.00.

As for `C=CC(=O)N1CCC[C@@H](n2cc(-c3ccc(Oc4ccccc4Cl)cc3)c3c(N)n[nH]c(=O)c32)C1` [Example 70, (R)-1-(1-acryloylpiperidin-3-yl)-4-amino-3-(4-(2-chlorophenoxy)phenyl)-1H-pyrrolo[2,3-d]pyridazin-7(6H)-one], the pIC50 was not below 8.00.

With `CN(C)C/C=C/C(=O)N1CCC[C@@H](n2cc(-c3ccc(Oc4ccccc4Cl)cc3)c3c(N)n[nH]c(=O)c32)C1` [Example 71, 4-amino-3-[4-(2-chlorophenoxy)phenyl]-1-[(3R)-1-[(E)-4-(dimethylamino)but-2-enoyl]-3-piperidyl]-6H-pyrrolo[2,3-d]pyridazin-7-one], the pIC50 is not below 8.00.

As to `C=CC(=O)N1CCC[C@@H](n2cc(-c3ccc(Oc4ccc(Cl)c(Cl)c4)c(OC)c3)c3c(N)n[nH]c(=O)c32)C1` [Example 72, (R)-1-(1-acryloylpiperidin-3-yl)-4-amino-3-(4-(3,4-dichlorophenoxy)-3-methoxyphenyl)-1H-pyrrolo[2,3-d]pyridazin-7(6H)-one], the pIC50 was 6.00 to 8.00.

With `COc1cc(-c2cn([C@@H]3CCCN(C(=O)/C=C/CN(C)C)C3)c3c(=O)[nH]nc(N)c23)ccc1Oc1ccc(Cl)c(Cl)c1` [Example 73, 4-amino-3-[4-(3,4-dichlorophenoxy)-3-methoxy-phenyl]-1-[(3R)-1-[(E)-4-(dimethylamino)but-2-enoyl]-3-piperidyl]-6H-pyrrolo[2,3-d]pyridazin-7-one], the pIC50 is 6.00 to 8.00.

With `C=CC(=O)N1CCC[C@@H](n2cc(-c3ccc(Oc4ccccc4)c(F)c3)c3c(N)n[nH]c(=O)c32)C1` [Example 74, (R)-1-(1-acryloylpiperidin-3-yl)-4-amino-3-(3-fluoro-4-phenoxyphenyl)-1H-pyrrolo[2,3-d]pyridazin-7(6H)-one], the pIC50 was not below 8.00.

As to `CN(C)C/C=C/C(=O)N1CCC[C@@H](n2cc(-c3ccc(Oc4ccccc4)c(F)c3)c3c(N)n[nH]c(=O)c32)C1` [Example 75, 4-amino-1-[(3R)-1-[(E)-4-(dimethylamino)but-2-enoyl]-3-piperidyl]-3-(3-fluoro-4-phenoxy-phenyl)-6H-pyrrolo[2,3-d]pyridazin-7-one], the pIC50 is 6.00 to 8.00.

Regarding `C=CC(=O)N1CCC[C@@H](n2cc(-c3ccc(Oc4ccccc4)cc3F)c3c(N)n[nH]c(=O)c32)C1` [Example 76, (R)-1-(1-acryloylpiperidin-3-yl)-4-amino-3-(2-fluoro-4-phenoxyphenyl)-1H-pyrrolo[2,3-d]pyridazin-7(6H)-one], the pIC50 was not below 8.00.

Take `CN(C)C/C=C/C(=O)N1CCC[C@@H](n2cc(-c3ccc(Oc4ccccc4)cc3F)c3c(N)n[nH]c(=O)c32)C1` [Example 77, 4-amino-1-[(3R)-1-[(E)-4-(dimethylamino)but-2-enoyl]-3-piperidyl]-3-(2-fluoro-4-phenoxy-phenyl)-6H-pyrrolo[2,3-d]pyridazin-7-one]: the pIC50 is not below 8.00.

For the compound `C=CC(=O)N1CCC[C@@H](n2cc(-c3ccc(Oc4c(F)cccc4Cl)cc3)c3c(N)n[nH]c(=O)c32)C1` [Example 78, (R)-1-(1-acryloylpiperidin-3-yl)-4-amino-3-(4-(2-chloro-6-fluorophenoxy)phenyl)-1H-pyrrolo[2,3-d]pyridazin-7(6H)-one], the pIC50 is not below 8.00.

Consider `CN(C)C/C=C/C(=O)N1CCC[C@@H](n2cc(-c3ccc(Oc4c(F)cccc4Cl)cc3)c3c(N)n[nH]c(=O)c32)C1` [Example 79, 4-amino-3-[4-(2-chloro-6-fluoro-phenoxy)phenyl]-1-[(3R)-1-[(E)-4-(dimethylamino)but-2-enoyl]-3-piperidyl]-6H-pyrrolo[2,3-d]pyridazin-7-one], for which the pIC50 was not below 8.00.

In the case of `C=CC(=O)N1CCC[C@@H](n2c(Cl)c(-c3ccc(Oc4ccccc4)cc3)c3c(N)n[nH]c(=O)c32)C1` [Example 80, (R)-1-(1-acryloylpiperidin-3-yl)-4-amino-2-chloro-3-(4-phenoxyphenyl)-1H-pyrrolo[2,3-d]pyridazin-7(6H)-one], the pIC50 is 6.00 to 8.00.

With `C=CC(=O)N1CCC[C@@H](n2c(F)c(-c3ccc(Oc4ccccc4)cc3)c3c(N)n[nH]c(=O)c32)C1` [Example 81, (R)-1-(1-acryloylpiperidin-3-yl)-4-amino-2-fluoro-3-(4-phenoxyphenyl)-1H-pyrrolo[2,3-d]pyridazin-7(6H)-one], the pIC50 is not below 8.00.

For `CN(C)C/C=C/C(=O)N1CCC[C@@H](n2c(F)c(-c3ccc(Oc4ccccc4)cc3)c3c(N)n[nH]c(=O)c32)C1` [Example 82, 4-amino-1-[(3R)-1-[(E)-4-(dimethylamino)but-2-enoyl]-3-piperidyl]-2-fluoro-3-(4-phenoxyphenyl)-6H-pyrrolo[2,3-d]pyridazin-7-one], the pIC50 was not below 8.00.

Turning to `N#CN1CCC[C@@H](n2cc(-c3ccc(Oc4c(F)cccc4F)cc3)c3c(N)n[nH]c(=O)c32)C1` [Example 84, (R)-3-(4-amino-3-(4-(2,6-difluorophenoxy)phenyl)-7-oxo-6,7-dihydro-1H-pyrrolo[2,3-d]pyridazin-1-yl)piperidine-1-carbonitrile], the pIC50 is not below 8.00.

On to `N#CN1CCC[C@@H](n2cc(-c3ccc(Oc4ccccc4)c(F)c3)c3c(N)n[nH]c(=O)c32)C1` [Example 85, (R)-3-(4-amino-3-(3-fluoro-4-phenoxyphenyl)-7-oxo-6,7-dihydro-1H-pyrrolo[2,3-d]pyridazin-1-yl)piperidine-1-carbonitrile], for which the pIC50 was not below 8.00.

For `N#CN1CCC[C@@H](n2cc(-c3ccc(Oc4ccccc4F)cc3)c3c(N)n[nH]c(=O)c32)C1` [Example 87, (R)-3-(4-amino-3-(4-(2-fluorophenoxy)phenyl)-7-oxo-6,7-dihydro-1H-pyrrolo[2,3-d]pyridazin-1-yl)piperidine-1-carbonitrile], the pIC50 was not below 8.00.

As to `C=CC(=O)Nc1cccc(-n2cc(-c3ccc(Oc4ccccc4)cc3)c3c(N)n[nH]c(=O)c32)c1` [Example 88, N-(3-(4-amino-7-oxo-3-(4-phenoxyphenyl)-6,7-dihydro-1H-pyrrolo[2,3-d]pyridazin-1-yl)phenyl)acrylamide], the pIC50 was not below 8.00.

On to `C=CC(=O)Nc1cccc(-n2cc(-c3ccc(OC)c(Cl)c3)c3c(N)n[nH]c(=O)c32)c1` [Example 89, N-(3-(4-amino-3-(3-chloro-4-methoxyphenyl)-7-oxo-6,7-dihydro-1H-pyrrolo[2,3-d]pyridazin-1-yl)phenyl)acrylamide], for which the pIC50 was 6.00 to 8.00.

In the case of `C=CC(=O)Nc1ccc(-n2cc(-c3ccc(Oc4ccccc4)cc3)c3c(N)n[nH]c(=O)c32)cc1` [Example 90, N-(4-(4-amino-7-oxo-3-(4-phenoxyphenyl)-6,7-dihydro-1H-pyrrolo[2,3-d]pyridazin-1-yl)phenyl)acrylamide], the pIC50 is not below 8.00.

In the case of `C=CC(=O)Nc1cccc(-n2cc(-c3ccc(Oc4ccccc4F)cc3)c3c(N)n[nH]c(=O)c32)c1` [Example 91, N-(3-(4-amino-3-(4-(2-fluorophenoxy)phenyl)-7-oxo-6,7-dihydro-1H-pyrrolo[2,3-d]pyridazin-1-yl)phenyl)acrylamide], the pIC50 was not below 8.00.

Regarding `CN(C)C/C=C/C(=O)Nc1cccc(-n2cc(-c3ccc(Oc4ccccc4F)cc3)c3c(N)n[nH]c(=O)c32)c1` [Example 92, (E)-N-[3-[4-amino-3-[4-(2-fluorophenoxy)phenyl]-7-oxo-6H-pyrrolo[2,3-d]pyridazin-1-yl]phenyl]-4-(dimethylamino)but-2-enamide], the pIC50 is not below 8.00.

Consider `CC#CC(=O)N1CC[C@@H](n2cc(-c3ccc(Oc4c(F)cccc4F)cc3)c3c(N)n[nH]c(=O)c32)C1` [Example 93, (R)-4-amino-1-(1-(but-2-ynoyl)pyrrolidin-3-yl)-3-(4-(2,6-difluorophenoxy)phenyl)-1H-pyrrolo[2,3-d]pyridazin-7(6H)-one], for which the pIC50 is not below 8.00.

For the compound `CC#CC(=O)N1CC[C@@H](n2cc(-c3ccc(Oc4c(F)cccc4Cl)cc3)c3c(N)n[nH]c(=O)c32)C1` [Example 94, (R)-4-amino-1-(1-(but-2-ynoyl)pyrrolidin-3-yl)-3-(4-(2-chloro-6-fluorophenoxy)phenyl)-1H-pyrrolo[2,3-d]pyridazin-7(6H)-one], the pIC50 was not below 8.00.

For `CC#CC(=O)N1CC[C@@H](n2cc(-c3ccc(Oc4ccccc4F)cc3)c3c(N)n[nH]c(=O)c32)C1` [Example 95, (R)-4-amino-1-(1-(but-2-ynoyl)pyrrolidin-3-yl)-3-(4-(2-fluorophenoxy)phenyl)-1H-pyrrolo[2,3-d]pyridazin-7(6H)-one], the pIC50 was not below 8.00.

Regarding `CC#CC(=O)N1CC[C@@H](n2cc(-c3ccc(Oc4ccccc4Cl)cc3)c3c(N)n[nH]c(=O)c32)C1` [Example 96, (R)-4-amino-1-(1-(but-2-ynoyl)pyrrolidin-3-yl)-3-(4-(2-chlorophenoxy)phenyl)-1H-pyrrolo[2,3-d]pyridazin-7(6H)-one], the pIC50 is 6.00 to 8.00.
